In US20250333405A1, “ANTAGONISTS OF GPR39 PROTEIN” (VASOCARDEA, INC., priority 2024, published 2025):

Molecular target: T1, human GPR39 receptor (Homo sapiens, UniProt O43194)
T1 construct: PC3 Cells, Expressing the Endogenous Human GPR39 Receptor; endogenous in cells; host or cells: PC3 (human prostate adenocarcinoma) cells
T1 sequence (O43194 1-453): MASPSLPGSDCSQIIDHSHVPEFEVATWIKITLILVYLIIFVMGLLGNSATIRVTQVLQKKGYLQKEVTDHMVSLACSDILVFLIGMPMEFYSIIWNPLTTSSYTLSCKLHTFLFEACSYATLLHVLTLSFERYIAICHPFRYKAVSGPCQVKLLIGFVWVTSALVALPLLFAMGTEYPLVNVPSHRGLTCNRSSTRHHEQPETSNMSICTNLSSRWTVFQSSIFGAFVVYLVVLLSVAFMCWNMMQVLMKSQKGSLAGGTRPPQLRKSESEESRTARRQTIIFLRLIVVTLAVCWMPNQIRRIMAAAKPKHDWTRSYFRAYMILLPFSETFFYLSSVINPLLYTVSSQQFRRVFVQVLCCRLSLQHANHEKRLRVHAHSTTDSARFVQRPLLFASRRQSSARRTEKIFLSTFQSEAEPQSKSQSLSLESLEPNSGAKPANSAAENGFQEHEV
Test: Intracellular calcium response (FLIPR, Calcium-6) in PC3 cells, antagonism of agonist C3 (TC-G 1008) at EC90
Type: cell-based
Settings: functional pKi (-Log10Ki) by modified Cheng-Prusoff from IC50; PC3 cells endogenously expressing human GPR39; 30 μM ZnCl2; agonist C3 (TC-G 1008) at EC90 1.5 μM; read-out: fpKi activity
Procedure: Measurement of Intracellular Calcium Response in PC3 Cells, Expressing the Endogenous Human GPR39 Receptor
Human prostate adenocarcinoma (PC3) cells endogenously expressing human GPR39 receptor were seeded into black walls clear-base 384-well plates at a density of 7,500 cells per well in DMEM (Low Glucose) supplemented with 10% heat-inactivated foetal bovine serum and 1% of Pen/Strep and grown overnight at 37° C., 5% CO2. After washing with assay buffer (20 mM HEPES, 137 mM NaCl, 5.4 mM KCl, 10 mM glucose, 0.8 mM MgSO4, 1.3 mM CaCl2), 0.3 mM Na2HPO4, 0.4 mM KH2PO4 4.2 mM NaHCO3, pH 7.4), cells were incubated with Calcium-6 probe (Molecular Devices) at 37° C. for 2 h and then equilibrated at RT for 30 minutes on metal block. The fluorescence was measured in real time by Fluorometric Imaging Plate Reader (FLIPR TETRA, Molecular Devices) (excitation wavelength at 470-495 nm, emission wavelength at 515-575 nm). Compounds of invention were serially diluted in neat DMSO at 1000 fold concentrations and plated into 384-well plates and then 200-fold diluted in assay buffer containing 150 μM ZnCl2 (30 μM final concentration) and 1.1% DMSO (0.32% final concentration). A dual addition FLIPR protocol was used which included a first addition of compounds 200-fold diluted in Assay Buffer containing 150 μM ZnCl2 and 1.1% DMSO and then after 10 minutes a second addition of a submaximal concentration of the hGPR39 receptor agonist, C3 (Tocris, TC-G 1008) at EC90 (concentration producing 90% of the maximal response) value of 1.5 μM. Fluorescence was monitored throughout the run assay. The peak of Ca2+ stimulation (baseline subtracted) was expressed as percentage of the maximal inhibition of the EC90 C3 response and was plotted versus the concentration of test compound. Curve fitting and IC50 estimations are carried out using a four-parameter logistic model using XLfit Software. […] An fpKi less than 5.2 is reported as “+/−”. An fpKi ranging from 5.2 to 5.9 is reported as “+”. An fpKi from 6.0 to 6.5 is reported as “++”. An fpKi from 6.6 to 7.2 is reported as “+++”. An fpKi equal to or greater than 7.3 is reported as “++++”.

Row | Compound | Ki [nM]
1 | Cc1nnc(-c2ccc(C(=O)N3CCC(C(C)(C)C)CC3)c(-c3ccn(C(C)C)n3)c2)[nH]1 [Example 40, (4-tert-butyl-1-piperidyl)-[2-(1-isopropylpyrazol-3-yl)-4-(5-methyl-4H-1,2,4-triazol-3-yl)phenyl]methanone] | 63.1 to 251
2 | CN1CCN(C(=O)c2ccc(NC(=O)C3CC3)cc2N2CCCC2)C(c2ccccc2C(F)(F)F)C1 (racemic) [Example 106, N-[4-[4-methyl-2-[2-(trifluoromethyl)phenyl]piperazine-1-carbonyl]-3-pyrrolidin-1-ylphenyl]cyclopropanecarboxamide] | 316 to 1000
3 | CCCN1CCN(C(=O)c2ccc(NC(=O)C3CC3)cc2-c2ccn(C(C)C)n2)CC1 [Example 24, N-[3-(1-propan-2-ylpyrazol-3-yl)-4-(4-propylpiperazine-1-carbonyl)phenyl]cyclopropanecarboxamide] | ≤ 50.1
4 | CC(C)n1ccc(-c2cc(-c3cc(C(F)(F)F)n[nH]3)ccc2C(=O)N2CCC(F)(F)CC2)n1 [Example 84, (4,4-difluoro-1-piperidyl)-[2-(1-isopropylpyrazol-3-yl)-4-[5-(trifluoromethyl)-1H-pyrazol-3-yl]phenyl]methanone] | 316 to 1000
5 | O=C(Nc1ccc(C(=O)N2CCC3(CC2)COC3)c(-c2cccc(C(F)(F)F)n2)c1)C1CC1 [Example 38, N-[4-(2-oxa-7-azaspiro[3.5]nonane-7-carbonyl)-3-[6-(trifluoromethyl)pyridin-2-yl]phenyl]cyclopropanecarboxamide] | ≤ 50.1
6 | Cc1nnc(-c2ccc(C(=O)N3CCC(C(F)(F)F)CC3)c(-c3nc(C(F)(F)F)cs3)c2)[nH]1 [Example 72, [4-(5-methyl-4H-1,2,4-triazol-3-yl)-2-[4-(trifluoromethyl)-1,3-thiazol-2-yl]phenyl]-[4-(trifluoromethyl)piperidin-1-yl]methanone] | ≤ 50.1
7 | CC(C)n1ccc(-c2cc(NC(=O)C3CC3)ccc2C(=O)N2CCS(=O)(=O)CC2)n1 [Example 28, N-[4-(1,1-dioxo-1,4-thiazinane-4-carbonyl)-3-(1-propan-2-ylpyrazol-3-yl)phenyl]cyclopropanecarboxamide] | ≤ 50.1
8 | CCn1ccc(-c2cc(-c3nnc(C)[nH]3)ccc2C(=O)N2CCC(F)(F)CC2)n1 [Example 59, (4,4-difluoro-1-piperidyl)-[2-(1-ethylpyrazol-3-yl)-4-(5-methyl-4H-1,2,4-triazol-3-yl)phenyl]methanone] | ≤ 50.1
9 | CCOC(=O)c1csc(-c2cc(-c3nnc(C)[nH]3)ccc2C(=O)N2CCC(F)(F)CC2)n1 [Example 82, ethyl 2-[2-(4,4-difluoropiperidine-1-carbonyl)-5-(5-methyl-4H-1,2,4-triazol-3-yl)phenyl]thiazole-4-carboxylate] | 1260 to 6310
10 | O=C(Nc1ccc(C(=O)N2CCC(c3ccccc3)C2)c(N2CCCC2)c1)C1CC1 (centres unmarked) [Example 2, N-[4-(3-phenylpyrrolidine-1-carbonyl)-3-pyrrolidin-1-ylphenyl]cyclopropanecarboxamide] | 1260 to 6310
11 | Cc1cc(C(=O)N2CCN(C)CC2c2ccccc2)c(N2CCCC2)cc1NC(=O)C1CC1 (centres unmarked) [Example 92, N-[2-methyl-4-(4-methyl-2-phenylpiperazine-1-carbonyl)-5-pyrrolidin-1-ylphenyl]cyclopropanecarboxamide] | > 6310
12 | CN1CCN(C(=O)c2ccc(Nc3nc4ccccn4n3)cc2N2CCCC2)C(c2ccccc2)C1 (centres unmarked) [Example 19, (4-methyl-2-phenylpiperazin-1-yl)-[2-pyrrolidin-1-yl-4-([1,2,4]triazolo[1,5-a]pyridin-2-ylamino)phenyl]methanone] | > 6310
13 | CN1CCN(C(=O)c2ccc(NC(=O)C3CC3)cc2N2CCCC2)C(c2cccc(C#N)c2)C1 (racemic) [Example 107, N-[4-[2-(3-cyanophenyl)-4-methylpiperazine-1-carbonyl]-3-pyrrolidin-1-ylphenyl]cyclopropanecarboxamide] | 63.1 to 251
14 | CN1CCN(C(=O)c2cc(Cl)c(NC(=O)C3CC3)cc2N2CCCC2)C(c2ccccc2)C1 (centres unmarked) [Example 95, N-[2-chloro-4-(4-methyl-2-phenylpiperazine-1-carbonyl)-5-pyrrolidin-1-ylphenyl]cyclopropanecarboxamide] | > 6310
15 | O=C(c1ccc(-c2nnc[nH]2)cc1N1CCCC1)N1CCC(C(F)(F)F)CC1 [Example 112, [2-pyrrolidin-1-yl-4-(4H-1,2,4-triazol-3-yl)phenyl]-[4-(trifluoromethyl)piperidin-1-yl]methanone] | 63.1 to 251
16 | Cc1nnc(-c2ccc(C(=O)N3CCC(F)(F)CC3)c(-c3ccn(C4CCC4)n3)c2)[nH]1 [Example 55, [2-(1-cyclobutylpyrazol-3-yl)-4-(5-methyl-4H-1,2,4-triazol-3-yl)phenyl]-(4,4-difluoropiperidin-1-yl)methanone] | ≤ 50.1
17 | Cc1nnc(-c2ccc(C(=O)N3CCC(C(F)(F)F)CC3)c(-c3nc(C4CC4)cs3)c2)[nH]1 [Example 69, [2-(4-cyclopropylthiazol-2-yl)-4-(5-methyl-4H-1,2,4-triazol-3-yl)phenyl]-[4-(trifluoromethyl)-1-piperidyl]methanone] | ≤ 50.1
18 | Cc1ncc(-c2cc(NC(=O)C3CC3)ccc2C(=O)N2CCN(C)CC2c2ccccc2)s1 (racemic) [Example 32, N-[4-(4-methyl-2-phenylpiperazine-1-carbonyl)-3-(2-methyl-1,3-thiazol-5-yl)phenyl]cyclopropanecarboxamide] | 1260 to 6310
19 | CN1CCN(C(=O)c2cc3[nH]c(C4CC4)nc3cc2N2CCCC2)C(c2ccccc2)C1 (centres unmarked) [Example 113, (2-cyclopropyl-6-pyrrolidin-1-yl-3H-benzimidazol-5-yl)-(4-methyl-2-phenylpiperazin-1-yl)methanone] | > 6310
20 | O=C(Nc1ccc(C(=O)N2CCC3(COC3)C2)c(N2CCCC2)c1)C1CC1 [Example 3, N-[4-(2-oxa-7-azaspiro[3.4]octane-7-carbonyl)-3-pyrrolidin-1-ylphenyl]cyclopropanecarboxamide] | 1260 to 6310
21 | C[C@@H]1CN(C(=O)c2ccc(NC(=O)C3CC3)cc2N2CCCC2)C[C@@H](C)O1 (racemic) [Example 4, N-[4-[(trans)-2,6-dimethylmorpholine-4-carbonyl]-3-pyrrolidin-1-ylphenyl]cyclopropanecarboxamide] | 1260 to 6310
22 | CCOC(=O)c1csc(-c2cc(C#N)ccc2C(=O)N2CCC(F)(F)CC2)n1 [Example 81, ethyl 2-[5-cyano-2-(4,4-difluoropiperidine-1-carbonyl)phenyl]thiazole-4-carboxylate] | 63.1 to 251
23 | O=C(Nc1ccc(C(=O)N2CC3CCC(C2)O3)c(N2CCCC2)c1)C1CC1 [Example 6, N-[4-(8-oxa-3-azabicyclo[3.2.1]octane-3-carbonyl)-3-pyrrolidin-1-ylphenyl]cyclopropanecarboxamide] | 316 to 1000
24 | Cc1nnc(-c2ccc(C(=O)N3CCC4(CCO4)CC3)c(-c3ccn(C(C)C)n3)c2)[nH]1 [Example 41, [2-(1-isopropylpyrazol-3-yl)-4-(5-methyl-4H-1,2,4-triazol-3-yl)phenyl]-(1-oxa-7-azaspiro[3.5]nonan-7-yl)methanone] | ≤ 50.1
25 | O=C(Nc1ccc(C(=O)N2C3CCC2COC3)c(N2CCCC2)c1)C1CC1 [Example 7, N-[4-(3-oxa-8-azabicyclo[3.2.1]octane-8-carbonyl)-3-pyrrolidin-1-ylphenyl]cyclopropanecarboxamide] | 1260 to 6310
26 | COC1(C)CCN(C(=O)c2ccc(-c3nnc(C)[nH]3)cc2-c2ccn(C(C)C)n2)CC1 [Example 39, [2-(1-isopropylpyrazol-3-yl)-4-(5-methyl-4H-1,2,4-triazol-3-yl)phenyl]-(4-methoxy-4-methyl-1-piperidyl)methanone] | ≤ 50.1
